Data on 22 molecules can be found in EP0168112A2, “Alpha-L-aspartyl-D-phenylglycine esters and amides useful as high intensity sweeteners” (THE PROCTER & GAMBLE COMPANY, priority 1984, dated 1986).

Square brackets hold non-standard residues; d marks the D form. Peptide text beside a SMILES is read from it. Phg = N[C@H](C(=O)O)c1ccccc1

The first series is described as follows: Sweetness intensity relative to sucrose, taste panel comparison with five sucrose standard samples. The following applies: relative to sucrose (w/v); test sample about 22°C, prepared at a concentration equal to about 8-10% sucrose. It counts as in vivo, Male subjects. The protocol: The subjects were asked to taste and expectorate about 10 ml of a test sample (temperature of about 22°C) having dissolved therein the ester or amide. The subjects were then asked to compare the sweetness of the test sample with five standard samples which contained increasing amounts of sucrose. The standard samples were letter coded A, B, C, D and E and were designated on a ballot by a closed linear scale. Sweetness intensity of the test sample was recorded by the subject making a mark on the linear scale at a point they considered equal in sweetness among the standard samples; interpolation between standards was encouraged. After completion of the panel, a five point numeric scale was superimposed on the linear scales to obtain numerical data; data were averaged and recorded to the nearest 0.25 unit. Equivalent sucrose sweetness was determined by referring to graphs of (wlv) sucrose concentration in the standard samples versus a linear numeric scale.
Sweetness intensity was calculated by dividing the concentration (w/v) of perceived sweeteness by the concentration (wlv) of the ester or amide required to produce that sweetness. […] The test sample was prepared at a concentration which would be equal to about 8-10% sucrose.
`CC1(C)[C@@H]2CC[C@@](C)(C2)[C@@H]1OC(=O)[C@H](NC(=O)[C@@H](N)CC(=O)O)c1ccccc1` [Example 1, alpha-L-Aspartyl-D-phenylglycine-(-)-alpha-fenchyl ester]: the sweetness intensity was determined as 1750 X. Same read-out and setting: for `CC(OC(=O)[C@H](NC(=O)[C@@H](N)CC(=O)O)c1ccccc1)C(C)(C)C` (stereo partly drawn) [Example 2, 3,3-Dimethyl-2-butyl ester] the value was 30 X.

`CC1CCC(C)C1OC(=O)[C@H](NC(=O)[C@@H](N)CC(=O)O)c1ccccc1` (stereo partly drawn) [Example 4, 2,5-Dimethylcyclopentyl ester] registered a sweetness intensity of 370 X. For the molecule `N[C@@H](CC(=O)O)C(=O)N[C@@H](C(=O)NC(C1CC1)C1CC1)c1ccccc1` [Example 12, alpha-L-Aspartyl-D-phenylglycinedicyclopropylcarbinyl amide], the sweetness intensity amounted to 80 X.

In turn, (±) endo-Norbornyl ester [Example 5] registered a sweetness intensity of 20 X.

(±) exo-Norbornyl ester [Example 6] gave a sweetness intensity of 150 X. Still for that read-out and setting: next, “alpha-L-Aspartyl-D-phenylglycine-(+)-beta-fenchyl ester [Example 8b]”: 5000 X; “alpha-L-Aspartyl-D-phenylglycine-(-)-beta-fenchyl ester [Example 8a]”: 600 X.

A further series can be described thus: Sweetness intensity based on informal panel testing. The class given is in vivo.
Conditions: not given
As to `CC1(C)SC(C)(C)C1NC(=O)[C@H](NC(=O)[C@@H](N)CC(=O)O)c1ccccc1` [Example 11, alpha-L-Aspartyl-D-phenylglycine-2,2,4,4-tetramethylthietan-3-yl amide], the sweetness intensity amounted to 100 X. Turning to “alpha-L-Aspartyl-D-phenylglycine-alpha-7-oxa-fenchyl ester [Example 14]”, the sweetness intensity entry is recorded as “approximately 1000 X”.

The next series can be described thus: Solubility for the sweetness intensity measurement. The class given is physicochemical. The following applies: sweetness intensity test sample.
On to `CC1CCCC(C)C1NC(=O)[C@H](NC(=O)[C@@H](N)CC(=O)O)c1ccccc1` (stereo partly drawn) [Example 10, 2,6-Dimethylcyclohexyl amide], for which the solubility entry was “too Insoluble for an accurate sweetness intensity measurement”.

Test in another series: not given
The following applies: in most carbonated beverages; background statement; cited from earlier work.
Take `COC(=O)[C@H](Cc1ccccc1)NC(=O)[C@@H](N)CC(=O)O` [aspartame, alpha-L-aspartyl-L-phenylalanine methyl ester] (H-Asp-Phe-OMe): the hydrolytic stability entry was “hydrolytically unstable”.

Test in a further series: not given
The following applies: prior art value; cited from earlier work.
With `C[C@@H](NC(=O)[C@@H](N)CC(=O)O)C(=O)NC1C(C)(C)S(=O)(=O)C1(C)C`, the sweetness intensity was 1000 times that of sucrose.

On to `C[C@@H](NC(=O)[C@@H](N)CC(=O)O)C(=O)NC1C(C)(C)SC1(C)C` [2,2,4,4-tetramethylthietan-3-yl], for which the sweetness intensity is 2000 times that of sucrose. As to `CC1CCC(C)C1NC(=O)[C@@H](C)NC(=O)[C@@H](N)CC(=O)O` (stereo partly drawn) [2,5 dimethylcyclopentyl], the sweetness intensity was 520 times that of sucrose. For `CC1CCCC(C)C1NC(=O)[C@@H](C)NC(=O)[C@@H](N)CC(=O)O` (stereo partly drawn) [2,6-dimethylcyclohexyl], the sweetness intensity is recorded as 600 times that of sucrose.

Consider `CCOC(=O)C(NC(=O)[C@@H](N)CC(=O)O)C(=O)OC1C2(C)CCC(C2)C1(C)C` (stereo partly drawn) [R' is fenchyl and R is ethyl], for which the sweetness intensity was 4200-5400 times that of sucrose. As for `COC(=O)C(NC(=O)[C@@H](N)CC(=O)O)C(=O)OC1C2(C)CCC(C2)C1(C)C` (stereo partly drawn) [R' is fenchyl and R is methyl], the sweetness intensity is given as 22,200-33,200 times that of sucrose. `O=C1NS(=O)(=O)c2ccccc21` [Saccharin, saccharin]: the sweetness intensity result is given as “about 300 times that of sucrose”.

As for `COC(=O)[C@H](Cc1ccccc1)NC(=O)[C@@H](N)CC(=O)O` [aspartame, alpha-L-aspartyl-L-phenylalanine methyl ester] (H-Asp-Phe-OMe), the sweetness intensity is 150-200 times that of sucrose. For the molecule `C[C@@H](NC(=O)[C@@H](N)CC(=O)O)C(=O)NC(C1CC1)C1CC1` [dicyclopropylcarbinyl], the sweetness intensity is recorded as 1200 times that of sucrose. As to `COC(=O)[C@@H](NC(=O)[C@@H](N)CC(=O)O)c1ccccc1` [methyl ester of L-aspartyl-L-phenylglycine] (H-Asp-[Phg]-OMe), the sweetness intensity was 100-1000 times that of sucrose.

Still in this series, the particulars now being: taste description from prior art; cited from earlier work.
Take `COC(=O)[C@@H](Cc1ccccc1)NC(=O)[C@@H](N)CC(=O)O` [methyl ester of L-aspartyl-D-phenylalanine] (H-Asp-[dF]-OMe): the taste entry was “bitter”. For the molecule `COC(=O)[C@@H](NC(=O)[C@@H](N)CC(=O)O)c1ccccc1` [methyl ester of L-aspartyl-L-phenylglycine] (H-Asp-[Phg]-OMe), the taste result was “quite sweet”.
